Values of other authors in patent publication US20070224228A1, “Soap Bars Having Ultraviolet Radiation Protection” (priority 2004, published 2007).

Details: partition coefficient; solvents octanol and water; values printed as approximate (˜)

Cyclomethicone
Log P: ~5.7

CCCCC(CC)COC(=O)C(C#N)=C(c1ccccc1)c1ccccc1 (centres unmarked) [Octocrylene]
Log P: ~6.9
